Experimental data published in patent publication US20260265248A1, “NOVEL PD-L1 INHIBITORS” (AFFIRMA BIOTECH S. L., priority 2023, published 2026).

Target: T1, PD-1/PD-L1 (Homo sapiens, UniProt Q9NZQ7)
T1 construct: purchased CisBio
Experiment: PD1-PDL1 HTRF assay
Settings: PD-1/PD-L1 homogenous time-resolved fluorescence (HTRF) binding assay; Tag1-PDL1 5 nM, Tag2-PD1 50 nM
In short: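 Compound (8 concentrations) was preincubated 15 min at room temperature with Tag1-PD-L1 and Tag2-PD-1, added as 5 nM and 50 nM solutions. Eu-labelled anti-Tag1 and XL665-labelled anti-Tag2 were then added for 1 h, and the 665/620 nm ratio (×10^4; excitation 320 nm) was fitted to the Hill equation for IC50.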

T1 sequence (Q9NZQ7 19-238 limits assumed): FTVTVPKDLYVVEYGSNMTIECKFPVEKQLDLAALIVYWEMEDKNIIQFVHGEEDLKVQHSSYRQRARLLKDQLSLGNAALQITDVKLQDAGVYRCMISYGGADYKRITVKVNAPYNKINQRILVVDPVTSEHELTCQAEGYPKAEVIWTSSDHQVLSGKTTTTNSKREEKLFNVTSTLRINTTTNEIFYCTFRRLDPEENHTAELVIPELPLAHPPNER

Row | IC50 [nM] | SMILES
1 | ≤ 10 | Cc1c(Nc2nccc3cc(CNCCO)cnc23)cccc1-c1cccc(-c2ccn3c(-c4ccc(CNCCO)cc4)nnc3c2)c1C [Example 84, 2-((4-(7-(3′-((3-(((2-hydroxyethyl)amino)methyl)-1,7-naphthyridin-8-yl)amino)-2,2′-dimethyl-[1,1′-biphenyl]-3-yl)-[1,2,4]triazolo[4,3-a]pyridin-3-yl)benzyl)amino)ethan-1-ol]
2 | 100 to 1000 | Cc1c(-c2ccc(CNCCO)cc2)cccc1-c1cccc(-c2ccn3c(NCCO)nnc3c2)c1C [Example 85, 2-(((3″-(3-((2-hydroxyethyl)amino)-[1,2,4]triazolo[4,3-a]pyridin-7-yl)-2′,2″-dimethyl-[1,1′:3′,1″-terphenyl]-4-yl)methyl)amino)ethan-1-ol]
3 | 10 to 100 | Cc1c(-c2ccc(CNCCO)cc2)cccc1-c1cccc(-c2ccn3c(CNC[C@@H]4CCC(=O)N4)nnc3c2)c1C [Example 86, (S)-5-((((7-(4″-(((2-hydroxyethyl)amino)methyl)-2,2′-dimethyl-[1,1′:3′,1″-terphenyl]-3-yl)-[1,2,4]triazolo[4,3-a]pyridin-3-yl)methyl)amino)methyl)pyrrolidin-2-one]
4 | 10 to 100 | Cc1c(-c2ccc(CNCCO)cc2)cccc1-c1cccc(-c2ccn3c(CN4CC[C@@H](C(=O)O)C4)nnc3c2)c1C [Example 87, (R)-1-((7-(4″-(((2-hydroxyethyl)amino)methyl)-2,2′-dimethyl-[1,1′:3′,1″-terphenyl]-3-yl)-[1,2,4]triazolo[4,3-a]pyridin-3-yl)methyl)pyrrolidine-3-carboxylic acid]
5 | 10 to 100 | Cc1c(-c2ccc(CNCCO)cc2)cccc1-c1cccc(-c2ccn3c(CN4CCC[C@@H]4C(=O)O)nnc3c2)c1C [Example 88, ((7-(4″-(((2-hydroxyethyl)amino)methyl)-2,2′-dimethyl-[1,1′:3′,1″-terphenyl]-3-yl)-[1,2,4]triazolo[4,3-α]pyridin-3-yl)methyl)-D-proline]
6 | 100 to 1000 | Cc1c(-c2ccn3c(CNCCO)nnc3c2)cccc1-c1cccc(-c2ccn3c(CNCCO)nnc3c2)c1C [Example 89, 2,2′-((((2,2′-dimethyl-[1,1′-biphenyl]-3,3′-diyl)bis([1,2,4]triazolo[4,3-a]pyridine-7,3-diyl))bis(methylene))bis(azanediyl))bis(ethan-1-ol)]
7 | ≤ 10 | Cc1c(-c2ccc(CNC[C@@H]3CCC(=O)N3)cc2)cccc1-c1cccc(-c2ccn3c(CNC[C@@H]4CCC(=O)N4)nnc3c2)c1C [Example 90, (S)-5-((((2′,2″-dimethyl-3″-(3-(((((S)-5-oxopyrrolidin-2-yl)methyl)amino)methyl)-[1,2,4]triazolo[4,3-a]pyridin-7-yl)-[1,1′:3′,1″-terphenyl]-4-yl)methyl)amino)methyl)pyrrolidin-2-one]
8 | 10 to 100 | Cc1c(-c2ccc(CNCCO)cc2)cccc1-c1cccc(-c2ccn3c(CNCCO)nnc3c2)c1C [Example 91, 2-(((7-(4″-(((2-hydroxyethyl)amino)methyl)-2,2′-dimethyl-[1,1′:3′,1″-terphenyl]-3-yl)-[1,2,4]triazolo[4,3-α]pyridin-3-yl)methyl)amino)ethan-1-ol]
9 | ≤ 10 | Cc1c(NC(=O)c2ccc(CNCCO)cn2)cccc1-c1cccc(-c2ccn3c(CNCCO)nnc3c2)c1C [Example 92, 5-(((2-hydroxyethyl)amino)methyl)-N-(3′-(3-(((2-hydroxyethyl)amino)methyl)-[1,2,4]triazolo[4,3-a]pyridin-7-yl)-2,2′-dimethyl-[1,1′-biphenyl]-3-yl)picolinamide]
10 | 100 to 1000 | Cc1c(NC(=O)c2ccc(CNCCO)cc2)cccc1-c1cccc(-c2ccn3c(CNCCO)nnc3c2)c1C [Example 93, 4-(((2-hydroxyethyl)amino)methyl)-N-(3′-(3-(((2-hydroxyethyl)amino)methyl)-[1,2,4]triazolo[4,3-α]pyridin-7-yl)-2,2′-dimethyl-[1,1′-biphenyl]-3-yl)benzamide]
11 | ≤ 10 | COc1nc(-c2cccc(-c3cccc(-c4ccc5nnc(CNC[C@@H]6CCC(=O)N6)n5c4)c3C)c2C)cnc1CNC[C@@H]1CCC(=O)N1 [Example 94, (S)-5-((((5-(2,2′-dimethyl-3′-(3-(((((S)-5-oxopyrrolidin-2-yl)methyl)amino)methyl)-[1,2,4]triazolo[4,3-a]pyridin-6-yl)-[1,1′-biphenyl]-3-yl)-3-methoxypyrazin-2-yl)methyl)amino)methyl)pyrrolidin-2-one]
12 | ≤ 10 | Cc1c(NC(=O)c2ccc(CNCCO)cn2)cccc1-c1cccc(-c2ccn3c(CNC[C@@H]4CCC(=O)N4)nnc3c2)c1C [Example 95, (S)—N-(2,2′-dimethyl-3′-(3-((((5-oxopyrrolidin-2-yl)methyl)amino)methyl)-[1,2,4]triazolo[4,3-a]pyridin-7-yl)-[1,1′-biphenyl]-3-yl)-5-(((2-hydroxyethyl)amino)methyl)picolinamide]
13 | ≤ 10 | OCCNCc1ccc(-c2cccc(-c3cccc(-c4ccn5c(CNCCO)nnc5c4)c3Cl)c2Cl)cc1 [Example 96, 2-(((2′,2″-dichloro-3″-(3-(((2-hydroxyethyl)amino)methyl)-[1,2,4]triazolo[4,3-a]pyridin-7-yl)-[1,1′:3′,1″-terphenyl]-4-yl)methyl)amino)ethan-1-ol]
14 | ≤ 10 | O=C1CC[C@@H](CNCc2ccc(-c3cccc(-c4cccc(-c5ccn6c(CNC[C@@H]7CCC(=O)N7)nnc6c5)c4Cl)c3Cl)cc2)N1 [Example 97, (S)-5-((((21,2″-dichloro-3″-(3-(((((S)-5-oxopyrrolidin-2-yl)methyl)amino)methyl)-[1,2,4]triazolo[4,3-α]pyridin-7-yl)-[1,1′:3′,1″-terphenyl]-4-yl)methyl)amino)methyl)pyrrolidin-2-one]
15 | 10 to 100 | Cc1c(-c2ccc(CNCCO)cc2)cccc1-c1cccc(-c2ccn3nc(CNCCO)nc3c2)c1C [Example 98, 2-(((7-(4″-(((2-hydroxyethyl)amino)methyl)-2,2′-dimethyl-[1,1′:3′,1″-terphenyl]-3-yl)-[1,2,4]triazolo[1,5-a]pyridin-2-yl)methyl)amino)ethan-1-ol]
16 | ≤ 10 | Cc1c(-c2ccc(CNC[C@@H]3CCC(=O)N3)cc2)cccc1-c1cccc(-c2ccn3nc(CNC[C@@H]4CCC(=O)N4)nc3c2)c1C [Example 99, (S)-5-((((21,2″-dimethyl-3″-(2-(((((S)-5-oxopyrrolidin-2-yl)methyl)amino)methyl)-[1,2,4]triazolo[1,5-a]pyridin-7-yl)-[1,1′:3′,1″-terphenyl]-4-yl)methyl)amino)methyl)pyrrolidin-2-one]
17 | ≤ 10 | Cc1c(NC(=O)c2ccc(CNCCO)cn2)cccc1-c1cccc(-c2ccn3nc(CNCCO)nc3c2)c1C [Example 100, 5-(((2-hydroxyethyl)amino)methyl)-N-(3′-(2-(((2-hydroxyethyl)amino)methyl)-[1,2,4]triazolo[1,5-a]pyridin-7-yl)-2,2′-dimethyl-[1,1′-biphenyl]-3-yl)picolinamide]
18 | ≤ 10 | Cc1c(NC(=O)c2ccc(CNCCO)cc2)cccc1-c1cccc(-c2ccn3nc(CNCCO)nc3c2)c1C [Example 101, 4-(((2-hydroxyethyl)amino)methyl)-N-(3′-(2-(((2-hydroxyethyl)amino)methyl)-[1,2,4]triazolo[1,5-a]pyridin-7-yl)-2,2′-dimethyl-[1,1′-biphenyl]-3-yl)benzamide]
